Measurements reported in PubChem BioAssay (NCI).
“And” between values parts separate entries of the source, which are not always exact repeats. Equal values may be shown once.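 Method: 48-hour compound exposure of cells in 96-well plates, five concentrations, linear interpolation of endpoints. GI50 = concentration required for 50% inhibition of growth. TGI is the concentration that stops growth completely.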

Legend:
Assay in all cases: NCI tumour cell line growth inhibition, 48 h
MOLT-4 leukemia = system: MOLT-4 leukemia
SK-MEL-2 melanoma = system: SK-MEL-2 melanoma
UO-31 renal = system: UO-31 renal
ACHN renal = system: ACHN renal
LOX IMVI melanoma = system: LOX IMVI melanoma
T-47D breast = system: T-47D breast
CAKI-1 renal = system: CAKI-1 renal
NCI-H226 lung = system: NCI-H226 lung
OVCAR-3 ovarian = system: OVCAR-3 ovarian
SF-295 CNS = system: SF-295 CNS

Row | Compound | GI50 (MOLT-4 leukemia) | TGI (MOLT-4 leukemia) | GI50 (SK-MEL-2 melanoma) | TGI (SK-MEL-2 melanoma) | GI50 (UO-31 renal) | TGI (UO-31 renal) | GI50 (ACHN renal) | TGI (ACHN renal) | GI50 (LOX IMVI melanoma) | TGI (LOX IMVI melanoma) | GI50 (T-47D breast) | TGI (T-47D breast) | GI50 (CAKI-1 renal) | TGI (CAKI-1 renal) | GI50 (NCI-H226 lung) | TGI (NCI-H226 lung) | GI50 (OVCAR-3 ovarian) | TGI (OVCAR-3 ovarian) | GI50 (SF-295 CNS) | TGI (SF-295 CNS)
1 | C=CCN=C(N/N=C/c1ccc([N+](=O)[O-])o1)NS(=O)(=O)c1cc(C(=O)Nc2ccccc2)c(Cl)cc1SCC(N)=O | 13.4 µM | 43.9 µM | 16.1 µM | 45.3 µM | > 100 µM | > 100 µM | > 100 µM | > 100 µM | 17 µM | 42.1 µM | 23.1 µM | > 100 µM | > 100 µM | > 100 µM | 30.8 µM | > 100 µM | 14.7 µM | 39.8 µM | > 100 µM | > 100 µM
2 | OCCCCC#Cc1ccccc1C#Cc1ccc(C(F)(F)F)cc1 | 13.6 µM | 31.4 µM | 16 µM | 33.9 µM | 16.3 µM | 30.3 µM | 17.5 µM | 31.2 µM | 17.1 µM | 31.5 µM | 15.9 µM | 33.9 µM | 18.6 µM | 33.8 µM | 18.7 µM | 34.1 µM | 17.8 µM | 32.6 µM | 19.1 µM | 34.5 µM
3 | Nc1ncnc2c1nc(Cl)n2C1OC(CO)C(O)C1O (configuration not stated) |  | > 100 µM |  | > 100 µM |  | > 100 µM |  | > 100 µM |  | > 100 µM |  | 8.15 µM |  | > 100 µM |  | > 85.2 µM |  | > 100 µM |  | > 100 µM
4 | COc1cc(/C=C2\C(=O)N(C)c3ccccc32)cc(OC)c1OC | 12 µM | 74.3 µM | 14.3 µM | 45.8 µM | 22.7 µM | > 100 µM | 14.7 µM | 62.8 µM | 11.1 µM | 26.7 µM | 58 µM | > 100 µM | 17.1 µM | 80.9 µM | 19.1 µM | 52.4 µM | 21.3 µM | 76.9 µM | 22.1 µM | > 100 µM
5 | COc1ccc(/C=C/C(C)=N/OCC(=O)Nc2ccc(Cl)cc2)cc1 | 2.23 µM | 9.97 µM | 3.69 µM | 13.5 µM | 1.67 µM | 22 µM | 1.94 µM | > 38.9 µM | 2.63 µM | 15.5 µM | 1.63 µM | 24.8 µM | 2.29 µM | 27 µM | 3.38 µM | 26.7 µM | 3.03 µM | 15 µM | 2.96 µM | 14.9 µM
6 | Fc1ccc(-c2nn3c(COc4ccc(Cl)cc4)nnc3s2)cc1Oc1ccccc1 | 3.51 µM | 17.7 µM | 38.6 µM | > 100 µM | 24.4 µM | > 100 µM | 31.4 µM | > 53.1 µM | > 42.2 µM | > 56.3 µM | 28 µM | > 66.3 µM | 34.9 µM | > 100 µM | 28.7 µM | 84.4 µM | 14.1 µM | 37.8 µM | 15.2 µM | 33.5 µM
7 | COc1cc(N(CCC#N)CCC#N)ccc1/C(N=Nc1ccc(C(=O)O)cc1)=N/NC(=O)c1cc(Br)ccc1O | 67.5 µg/mL | > 150 µg/mL | > 150 µg/mL | > 150 µg/mL | 107 µg/mL | > 150 µg/mL | 108 µg/mL | > 150 µg/mL | 84.4 µg/mL | > 150 µg/mL | 64.4 µg/mL | > 150 µg/mL | 130 µg/mL | > 150 µg/mL | 53.2 µg/mL | > 150 µg/mL | 65 µg/mL | > 150 µg/mL | 96.4 µg/mL | > 150 µg/mL
8 | O=C(Nc1ccc(C(F)(F)F)cc1[N+](=O)[O-])c1cccnc1 |  | > 100 µM |  | > 100 µM |  | > 100 µM |  | > 100 µM |  | > 100 µM |  | > 100 µM |  | 8.11 µM |  | > 100 µM |  | 7.29 µM |  | 23.9 µM
9 | C=C1CC/C=C(\C)CC[C@H](C(=C)C)[C@@H](O)/C=C(/CO)CCC1O (some centres not stated) | 24 µM | 53.6 µM | > 100 µM | > 100 µM | 62.2 µM | > 100 µM | > 100 µM | > 100 µM | 50.4 µM | > 100 µM | 45.7 µM | > 100 µM | 81.4 µM | > 100 µM | > 100 µM | > 100 µM | 40 µM | > 100 µM | 71.9 µM | > 100 µM
10 | CC1OC(OC2C(O[C@H]3CC[C@@]4(C)C(=CC[C@H]5[C@@H]6C[C@@H]7O[C@]8(CC[C@@H](C)CO8)[C@@H](C)[C@@H]7[C@@]6(C)CC[C@@H]54)C3)OC(CO)C(OC3OC(CO)C(O)C3O)C2O)C(O)C(O)C1O (some centres not stated) | 0.187 µM | 1.8 µM and 0.412 µM | 1.46 µM | 1.82 µM and 2.78 µM |  | 1.5 µM |  | 1.58 µM and 2.12 µM | 0.21 µM | 1.19 µM and 0.517 µM | 1.39 µM | 2.68 µM | 0.602 µM | 1.76 µM and 1.86 µM |  | 1.73 µM | 1.49 µM | 1.79 µM and 2.82 µM | 0.448 µM | 1.53 µM and 1.62 µM
11 | CCSc1ncc(Br)c(Sc2nc(N)nc3nc[nH]c23)n1 | 3.42 µM | > 100 µM | 4.19 µM | > 100 µM | 2.3 µM | > 100 µM | 6.58 µM | > 100 µM | 2.39 µM | > 100 µM | 3.07 µM | > 100 µM | 3.43 µM | > 100 µM | 2.59 µM | > 100 µM | 2.55 µM | 25 µM | 1.82 µM | > 100 µM
12 | COC(=O)[C@H](Cc1cn(C)cn1)NC(=O)[C@@H](NC(=O)Nc1cc(C(F)(F)F)cc(C(F)(F)F)c1)C(C)C | 3.16 µM | > 10 µM | > 10 µM | > 10 µM | > 10 µM | > 10 µM | > 10 µM | > 10 µM | 1.74 µM | 3.4 µM | 3.14 µM | > 10 µM | > 10 µM | > 10 µM | > 10 µM | > 10 µM | 1.86 µM | 3.48 µM | > 10 µM | > 10 µM
13 | CCN1CCN(c2nc(NNC(=O)c3ccccc3)nc(N3CCN(C(c4ccccc4)c4ccccc4)CC3)n2)CC1 | 2.01 µM | 5.42 µM | 2.4 µM | 5.67 µM | 1.52 µM | 3.25 µM | 2.53 µM | 6.56 µM | 1.82 µM | 3.35 µM | 3.16 µM | 31.2 µM | 2.21 µM | 5.76 µM | 11.9 µM | 29.5 µM | 3.43 µM | 13.2 µM | 4.58 µM | 16.3 µM
